# In patent publication US4137236A, “Amino-spiro[oxa(or thia)cycloalkane-penam]-carboxylic” (U C B, Societe Anonyme, priority 1977, dated 1979):
# Assays:
# [1] = test system: Staphylococcus aureus 52149; experiment: MIC in gelose culture medium (relative to reference penicillin); type: cell-based; conditions: S.AUREUS 52149
# Experimental: This is a Gram-positive coccus, the intrinsic sensitivity of the receptor of which is equivalent to that of the preceding strain but which produces a beta-lactamase which is typical of the species and which renders it resistant to all the penicillins which are sensitive to hydrolysis.
# (§1) For a certain number of compounds of formula (XV), the minimum inhibitory concentration (MIC) was determined as follows:
# (§2) The products to be tested are introduced in increasing concentrations into a gelose culture medium in Petri dishes. A multiple inoculator is used to deposit simultaneously drops (10 microliters) of inoculum (suspension of approximately 10^5 bacteria per ml) onto the surface of the medium. After incubation at 37° C for 24 hours, the growth of the bacteria is observed. By definition, the MIC is expressed by the minimum concentration of tested compound which inhibits the multiplication of the bacteia. In the following results, however, the MIC is given as being equal to 1 for the reference compounds and the activity figures given for the tested compounds of formula (XV) are, therefore, relative values. This presentation of the results is more correct and the most reproducible because, for one and the same bacterial strain, different MIC values can be observed if they are measured at different times. This is bound up with the "seasonal" variations in the strains and their nutrient medium.
# [2] = test system: Escherichia coli B-Ampi R; experiment: as above; type: cell-based; conditions: E.COLI B AMPI-R
# Experimental: This is a mutant of the preceding strain which we have produced.
# as §1, §2
# [3] = test system: Staphylococcus aureus 6538; experiment: as above; type: cell-based; conditions: S.AUREUS 6538
# Experimental: This is a Gram-positive coccus which is particularly sensitive to penicillins and which has a low resistance mechanism. This strain of Staphylococcus is, therefore, representative of a maximum sensitivity of the species.
# as §1, §2
# Escherichia coli B = experiment: as above; type: cell-based; conditions: E.COLI B
# Experimental: This is a well-known collection strain of Escherichia coli which produces very little beta-lactamase (of type I) and is, therefore, very sensitive to penicillins. As regards the classification of the beta-lactamases, use is here made of that proposed by M. H. RICHMOND and R. B. SYKES (see Advances in Microbial Physiology,9,(1973),pp.43 and 45).
# as §1, §2
# beta-lactamase TEM [4] = experiment: Rate of hydrolysis by beta-lactamase measured as NaOH consumed per minute; type: biochemical
# Excerpt: This method allows the dosage of the penicilloic acid resulting from the hydrolysis of the beta-lactam function by the lytic enzyme. The results of these kinetics, as given in the following Table, clearly show the superiority of compounds E and H as compared with pencillin G.
# Escherichia coli K 12-44 = experiment: MIC in gelose culture medium (relative to reference penicillin); type: cell-based; conditions: E.COLI K 12-44; reference ampicillin = 1
# Experimental: This is a mutant of Escherichia coli K 12, the typical reference parent strain of the species. This mutant is not a producer of beta-lactamase.
# as §1, §2
# [5] = test system: Escherichia coli K 12-44 R; experiment: as above; type: cell-based; conditions: E.COLI K 12-44R; reference ampicillin = 1
# Experimental: This strain is a pleiotropic mutant of Escherichia coli K 12-44, which we have produced. It is not a producer of beta-lactamase but, nevertheless, it has a resistance to penicillins, probably as a result of the modification of the permeability of the cell membranes.
# as §1, §2
# beta-lactamase P 99 = beta-lactamase P 99 (Enterobacter cloacae, UniProt P05364); experiment: Hydrolysis kinetics: residual activity in the presence of beta-lactamase; type: biochemical, Gram-negative bacteria
# beta-lactamase TEM [6] = target: beta-lactamase TEM (Escherichia coli, UniProt P62593); experiment: as above; type: biochemical, Gram-negative bacteria
# [7] = test system: Escherichia coli K 12-44 S; experiment: MIC in gelose culture medium (relative to reference penicillin); type: cell-based; conditions: E.COLI K 12-44S; reference ampicillin = 1
# Experimental: It is very sensitive to penicillins due to hyperpermeability.
# as §1, §2
# [8] = reference 6-amino-penicillanic acid = 1
# Chain of beta-lactamase P 99 (P05364 21-381): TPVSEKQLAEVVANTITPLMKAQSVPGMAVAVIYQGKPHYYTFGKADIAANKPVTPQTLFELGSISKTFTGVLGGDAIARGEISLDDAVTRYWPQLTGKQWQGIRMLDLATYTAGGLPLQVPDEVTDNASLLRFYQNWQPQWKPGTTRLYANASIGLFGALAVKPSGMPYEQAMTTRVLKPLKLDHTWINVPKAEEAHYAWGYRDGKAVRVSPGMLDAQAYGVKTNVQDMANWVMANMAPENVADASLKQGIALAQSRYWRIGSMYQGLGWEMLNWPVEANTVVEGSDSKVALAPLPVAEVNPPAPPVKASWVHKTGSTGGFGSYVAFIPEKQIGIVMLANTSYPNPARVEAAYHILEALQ
# Chain of beta-lactamase TEM (Escherichia coli, UniProt P62593) (P62593 24-286 limits assumed): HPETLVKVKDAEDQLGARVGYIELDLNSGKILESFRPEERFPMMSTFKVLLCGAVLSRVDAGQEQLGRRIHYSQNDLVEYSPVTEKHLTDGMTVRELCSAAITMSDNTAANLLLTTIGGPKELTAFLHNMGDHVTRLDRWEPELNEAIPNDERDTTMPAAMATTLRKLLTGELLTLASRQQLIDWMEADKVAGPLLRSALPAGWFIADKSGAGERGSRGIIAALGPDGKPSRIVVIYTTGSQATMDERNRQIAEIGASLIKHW
compound,measurement,setting,value
"O=C(Cc1ccccc1)N[C@@H]1C(=O)N2[C@@H]1SC1(CCOCC1)[C@@H]2C(=O)O (relative stereo) [Compound A, 6-(2""-phenylacetamido)-2',3',5',6'-tetrahydro-spiro[penam-2,4'-[4H]pyran]-3-carboxylic acid]",MIC relative to reference compound (=1),[1]; reference penicillin G = 1,2
same,MIC relative to reference compound (=1),[2]; reference penicillin G = 1,2
same,MIC relative to reference compound (=1),[3]; reference penicillin G = 1,2
same,MIC relative to reference compound (=1),Escherichia coli B; reference penicillin G = 1,4
"Cc1onc(-c2ccccc2)c1C(=O)N[C@@H]1C(=O)N2[C@@H]1SC1(CCOCC1)[C@@H]2C(=O)O (relative stereo) [Compound C, 6-(5""-methyl-3""-phenyl-4""-isoxazolecarboxamido)-2',3',5',6'-tetrahydro-spiro[penam-2,4'-[4H]pyran]-3-carboxylic acid]",MIC relative to reference compound (=1),[1]; reference oxacillin = 1,1
same,MIC relative to reference compound (=1),[3]; reference oxacillin = 1,2
"O=C(Cc1ccccc1)N[C@@H]1C(=O)N2[C@@H]1SC1(CCSCC1)[C@@H]2C(=O)O (relative stereo) [Compound E, 6-(2""-phenylacetamido)-2',3',5',6'-tetrahydro-spiro[penam-2,4'-[4H]thiopyran]-3-carboxylic acid]",Rate of hydrolysis: microliters 0.005 N NaOH consumed per minute,beta-lactamase TEM [4],0.64 microliters 0.005 N NaOH per m
same,MIC relative to reference compound (=1),[1]; reference penicillin G = 1,1
same,MIC relative to reference compound (=1),[2]; reference penicillin G = 1,> 2
same,MIC relative to reference compound (=1),[3]; reference penicillin G = 1,10
same,MIC relative to reference compound (=1),Escherichia coli B; reference penicillin G = 1,5
"COc1cccc(OC)c1C(=O)N[C@@H]1C(=O)N2[C@@H]1SC1(CCSCC1)[C@@H]2C(=O)O (relative stereo) [Compound G, 6-(2"",6""-dimethoxybenzamido)-2',3',5',6'-tetrahydro-spiro[penam-2,4'-[4H]thiopyran]-3-carboxylic acid]",MIC relative to reference compound (=1),[1]; reference methicillin = 1,0.5
"N[C@@H](C(=O)NC1C(=O)N2C1SC1(CCOCC1)C2C(=O)O)c1ccccc1 (single isomer, unassigned) [Compound B, 6-(2""-amino-2""-phenylacetamido)-2',3',5',6'-tetrahydro-spiro[penam-2,4'-[4H]pyran]-3-carboxylic acid]",MIC relative to reference compound (=1),Escherichia coli K 12-44,3.5
same,MIC relative to reference compound (=1),[5],1.5
same,Remaining activity as percentage of initial,beta-lactamase P 99; after incubation for 9 minutes,67%
same,Residual activity in the presence of beta-lactamase,beta-lactamase P 99; incubation time 0 minutes,500 µmol
same,Residual activity in the presence of beta-lactamase,beta-lactamase P 99; incubation time 3 minutes,458 µmol
same,Residual activity in the presence of beta-lactamase,beta-lactamase P 99; incubation time 6 minutes,422 µmol
same,Residual activity in the presence of beta-lactamase,beta-lactamase P 99; incubation time 9 minutes,334 µmol
same,Residual activity in the presence of beta-lactamase,beta-lactamase P 99; incubation time 12 minutes,312 µmol
same,Residual activity in the presence of beta-lactamase,beta-lactamase P 99; incubation time 20 minutes,300 µmol
same,Remaining activity as percentage of initial,beta-lactamase TEM [6]; after incubation for 6 minutes,87%
same,Residual activity in the presence of beta-lactamase,beta-lactamase TEM [6]; incubation time 0 minutes,500 µmol
same,Residual activity in the presence of beta-lactamase,beta-lactamase TEM [6]; incubation time 2 minutes,469 µmol
same,Residual activity in the presence of beta-lactamase,beta-lactamase TEM [6]; incubation time 4 minutes,453 µmol
same,Residual activity in the presence of beta-lactamase,beta-lactamase TEM [6]; incubation time 6 minutes,438 µmol
same,Residual activity in the presence of beta-lactamase,beta-lactamase TEM [6]; incubation time 12 minutes,334 µmol
same,Residual activity in the presence of beta-lactamase,beta-lactamase TEM [6]; incubation time 18 minutes,225 µmol
same,MIC relative to reference compound (=1),[2]; reference ampicillin = 1,1
same,MIC relative to reference compound (=1),Escherichia coli B; reference ampicillin = 1,3.5
"CC1(C)S[C@@H]2[C@H](NC(=O)[C@H](N)c3ccccc3)C(=O)N2[C@H]1C(=O)O [Ampicillin, ampicillin, reference compound]",MIC relative to reference compound (=1),Escherichia coli K 12-44,1
same,MIC relative to reference compound (=1),[5],1
same,Residual activity in the presence of beta-lactamase,beta-lactamase P 99; incubation time 0 minutes,500 µmol
same,Residual activity in the presence of beta-lactamase,beta-lactamase P 99; incubation time 3 minutes,262 µmol
same,Residual activity in the presence of beta-lactamase,beta-lactamase P 99; incubation time 6 minutes,138 µmol
same,Residual activity in the presence of beta-lactamase,beta-lactamase P 99; incubation time 9 minutes,< 50 µmol
same,Residual activity in the presence of beta-lactamase,"beta-lactamase P 99; incubation time 9 minutes, listed as ampicillin",no more detectable
same,Residual activity in the presence of beta-lactamase,beta-lactamase P 99; incubation time 12 minutes,< 50 µmol
same,Residual activity in the presence of beta-lactamase,beta-lactamase P 99; incubation time 20 minutes,< 50 µmol
same,Residual activity in the presence of beta-lactamase,beta-lactamase TEM [6]; incubation time 0 minutes,500 µmol
same,Residual activity in the presence of beta-lactamase,beta-lactamase TEM [6]; incubation time 6 minutes,< 50 µmol
same,Residual activity in the presence of beta-lactamase,"beta-lactamase TEM [6]; incubation time 6 minutes, listed as ampicillin",no more detectable
same,Residual activity in the presence of beta-lactamase,beta-lactamase TEM [6]; incubation time 12 minutes,< 50 µmol
same,Residual activity in the presence of beta-lactamase,beta-lactamase TEM [6]; incubation time 18 minutes,< 50 µmol
same,MIC relative to reference compound (=1),[2]; reference ampicillin = 1,1
same,MIC relative to reference compound (=1),[3]; reference ampicillin = 1,1
same,MIC relative to reference compound (=1),Escherichia coli B; reference ampicillin = 1,1
same,MIC relative to reference compound (=1),[7],1
"NC(C(=O)NC1C(=O)N2C1SC1(CCSCC1)C2C(=O)O)c1ccccc1 (stereo not drawn) [Compound F, 6-(2""-amino-2""-phenylacetamido)-2',3',5',6'-tetrahydro-spiro[penam-2,4'-[4H]thiopyran]-3-carboxylic acid]",MIC relative to reference compound (=1),Escherichia coli K 12-44,10
same,MIC relative to reference compound (=1),[5],> 1.5
same,Resistance to beta-lactamase as compared with ampicillin (in words),beta-lactamase P 99,increased resistance
same,Resistance to beta-lactamase as compared with ampicillin (in words),beta-lactamase TEM [6],increased resistance
same,MIC relative to reference compound (=1),[2]; reference ampicillin = 1,3
same,MIC relative to reference compound (=1),[3]; reference ampicillin = 1,2
same,MIC relative to reference compound (=1),Escherichia coli B; reference ampicillin = 1,7
same,MIC relative to reference compound (=1),[7],15
"O=C(Cc1ccccc1)NC1C(=O)N2C1SC1(CC[S+]([O-])CC1)C2C(=O)O (stereo not drawn) [Compound H, 6-(2""-phenylacetamido)-2',3',5',6'-tetrahydro-spiro[penam-2,4'-[4H]thiopyran]-3-carboxylic acid 1'-oxide]",Rate of hydrolysis: microliters 0.005 N NaOH consumed per minute,beta-lactamase TEM [4],0.50 microliters 0.005 N NaOH per m
same,MIC relative to reference compound (=1),[1]; reference penicillin G = 1,1
same,MIC relative to reference compound (=1),[3]; reference penicillin G = 1,1
same,MIC relative to reference compound (=1),Escherichia coli B; reference penicillin G = 1,1
"NC(C(=O)NC1C(=O)N2C1SC1(CC[S+]([O-])CC1)C2C(=O)O)c1ccccc1 (stereo not drawn) [Compound J, 6-(2""-amino-2""-phenylacetamido)-2',3',5',6'-tetrahydro-spiro[penam-2,4'-[4H]thiopyran]-3-carboxylic acid 1'-oxide]",MIC relative to reference compound (=1),Escherichia coli K 12-44,3
same,MIC relative to reference compound (=1),[5],2
same,Resistance to beta-lactamase as compared with ampicillin (in words),beta-lactamase P 99,No change in behavior
same,Resistance to beta-lactamase as compared with ampicillin (in words),beta-lactamase TEM [6],No change in behavior
same,MIC relative to reference compound (=1),[2]; reference ampicillin = 1,2
same,MIC relative to reference compound (=1),[3]; reference ampicillin = 1,2
same,MIC relative to reference compound (=1),Escherichia coli B; reference ampicillin = 1,1
same,MIC relative to reference compound (=1),[7],3
"COc1cccc(OC)c1C(=O)N[C@@H]1C(=O)N2[C@@H]1SC(C)(C)[C@@H]2C(=O)O [Methicillin, methicillin, reference compound]",MIC relative to reference compound (=1),[1]; reference methicillin = 1,1
"Cc1onc(-c2ccccc2)c1C(=O)N[C@@H]1C(=O)N2[C@@H]1SC(C)(C)[C@@H]2C(=O)O [Oxacillin, oxacillin, reference compound]",MIC relative to reference compound (=1),[1]; reference oxacillin = 1,1
same,MIC relative to reference compound (=1),[3]; reference oxacillin = 1,1
"CC1(C)S[C@@H]2C(N)C(=O)N2[C@H]1C(=O)O (stereo partly drawn) [Penicillanic acid, 6-amino-penicillanic acid, reference compound]",MIC relative to reference compound (=1),[1]; [8],1
same,MIC relative to reference compound (=1),[2]; [8],1
same,MIC relative to reference compound (=1),[3]; [8],1
same,MIC relative to reference compound (=1),Escherichia coli B; [8],1
"CC1(C)S[C@@H]2[C@H](NC(=O)Cc3ccccc3)C(=O)N2[C@H]1C(=O)O [Penicillin G, penicillin G, reference compound]",Rate of hydrolysis: microliters 0.005 N NaOH consumed per minute,beta-lactamase TEM [4],3.83 microliters 0.005 N NaOH per m
same,MIC relative to reference compound (=1),[1]; reference penicillin G = 1,1
same,MIC relative to reference compound (=1),[3]; reference penicillin G = 1,1
